# Measurements: US10219516B2, “Molecules having pesticidal utility, and intermediates, compositions, and processes, related thereto” (priority 2015, dated 2019)
# Like-named read-outs stand apart in the source and are kept apart here.
# Legend:
# Format in all cases: in vivo
# [1] = tested on: Beet Armyworm (Spodoptera exigua, LAPHEG); test: Bioassay on Beet Armyworm (BAW), 128-well diet tray assay
# Procedure, shortened: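 Test molecule dissolved in acetone-water 90:10 is applied at 50 μg/cm^2 onto artificial diet and allowed to dry. Second instar larvae, one to five per well, are then added, and trays are vented and kept at 25° C. for five to seven days before mortality is scored.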
# [2] = tested on: Cabbage Looper (Trichoplusia ni, TRIPNI); test: Bioassay on Cabbage Looper (CL), 128-well diet tray assay; details: Trichoplusia ni
# Procedure, shortened: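 Second-instar larvae, one to five per well, were placed on artificial diet surface-treated with 50 μg/cm^2 test molecule applied in 90:10 acetone-water and dried, eight wells per molecule. Trays were covered, vented and held at 25° C., 14:10 light-dark for five to seven days; percent mortality per well was averaged.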
# [3] = tested on: Yellow Fever Mosquito (Aedes aegypti, AEDSAE); test: Bioassay on Yellow Fever Mosquito (YFM), 96-well plate larval assay; details: for YFM (Biological Results, rating): Species YFM (Yellow Fever Mosquito); for YFM rating: Yellow Fever Mosquito, 96-well plate larval assay
# Procedure, shortened: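 Aedes aegypti larvae (about 1 day old) in liver-powder water were added to plates dispensed from DMSO master plates (4000 ppm stock) diluted with 90:10 water/acetone; six replicate plates per master. Lidded plates were held at room temperature for 3 days, then each well was scored for mortality.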
# [4] = Species BAW (Beet Armyworm), read-out: BAW (Biological Results, rating)
# [5] = Species CL (Cabbage Looper), read-out: CL (Biological Results, rating)
# [6] = Beet Armyworm, 128-well diet tray assay, read-out: BAW rating
# [7] = Cabbage Looper, 128-well diet tray assay, read-out: CL rating
SMILES,"pest or weed control at 50 µg/cm2 [1, 4]","pest or weed control at 50 µg/cm2 [2, 5]","YFM (Biological Results, rating) [3]","pest or weed control at 50 µg/cm2 [1, 6]","pest or weed control at 50 µg/cm2 [2, 7]",YFM rating [3]
"N#Cc1cc(Cl)ccc1NC(=O)c1cc(NC(=O)[C@H]2[C@H](c3cc(Cl)cc(Cl)c3)C2(Cl)Cl)ccc1Cl (relative stereo) [F301, 2-Chloro-N-(4-chloro-2-cyanophenyl)-5-(trans-2,2-dichloro-3-(3,5-dichlorophenyl)cyclopropane-1-carboxamido)benzamide]",50 to 100%,50 to 100%,A (80-100),–,–,–
"O=C(Nc1cccc(F)n1)c1cc(NC(=O)[C@H]2[C@H](c3cc(Cl)cc(Cl)c3)C2(Cl)Cl)ccc1Cl (relative stereo) [F240, trans-2-Chloro-5-(2,2-dichloro-3-(3,5-dichlorophenyl)cyclopropane-1-carboxamido)-N-(6-fluoropyridin-2-yl)benzamide]",50 to 100%,50 to 100%,A (80-100),–,–,–
"CN(C(=O)c1cc(NC(=O)[C@H]2[C@H](c3cc(Cl)c(Cl)c(Cl)c3)C2(Cl)Cl)ccc1Cl)c1ccc(F)cc1C#N (relative stereo) [F244, trans-2-Chloro-N-(2-cyano-4-fluorophenyl)-5-(2,2-dichloro-3-(3,4,5-trichlorophenyl)cyclopropane-1-carboxamido)-N-methylbenzamide]",50 to 100%,50 to 100%,A (80-100),–,–,–
"Nc1cc(NC(=O)c2cc(NC(=O)[C@H]3[C@H](c4cc(Cl)c(Cl)c(Cl)c4)C3(Cl)Cl)ccc2Cl)c(F)cc1F [F402, N-(5-Amino-2,4-difluorophenyl)-2-chloro-5-((1R,3R)-2,2-dichloro-3-(3,4,5-trichlorophenyl)cyclopropane-1-carboxamido)benzamide]",–,–,–,50 to 100%,50 to 100%,A (80-100)
"Nc1cc(F)cc(F)c1NC(=O)c1cc(NC(=O)[C@H]2[C@H](c3ccc(F)c(Cl)c3)C2(Cl)Cl)ccc1Cl [F409, N-(2-Amino-4,6-difluorophenyl)-2-chloro-5-((1R,3R)-2,2-dichloro-3-(3-chloro-4-fluorophenyl)cyclopropane-1-carboxamido)benzamide]",–,–,–,50 to 100%,50 to 100%,A (80-100)
"O=C(Nc1ncc(I)cc1F)c1cc(NC(=O)[C@H]2[C@H](c3cc(Cl)cc(Cl)c3)C2(Cl)Cl)ccc1Cl (relative stereo) [F312, 2-Chloro-5-(trans)-(2,2-dichloro-3-(3,5-dichlorophenyl)cyclopropane-1-carboxamido)-N-(3-fluoro-5-iodopyridin-2-yl)benzamide]",50 to 100%,50 to 100%,A (80-100),–,–,–
"CN(C(=O)c1cc(NC(=O)[C@H]2[C@H](c3ccc(Cl)c(Cl)c3)C2(Cl)Cl)ccc1F)c1ccc(F)cc1 (relative stereo) [F59, trans-5-(2,2-Dichloro-3-(3,4-dichlorophenyl)cyclopropane-1-carboxamido)-2-fluoro-N-(4-fluorophenyl)-N-methylbenzamide]",50 to 100%,50 to 100%,A (80-100),–,–,–
"Nc1cccc(NC(=O)c2cc(NC(=O)[C@H]3[C@H](c4cc(Cl)cc(Cl)c4)C3(Cl)Cl)ccc2Cl)c1 (relative stereo) [F201, trans-N-(3-Aminophenyl)-2-chloro-5-(2,2-dichloro-3-(3,5-dichlorophenyl)cyclopropane-1-carboxamido)benzamide]",50 to 100%,50 to 100%,A (80-100),–,–,–
"COc1cc([C@H]2[C@H](C(=O)Nc3ccc(Cl)c(C(=O)Nc4ccc(F)cc4)c3)C2(Cl)Cl)cc(F)c1Br (relative stereo) [F539, 5-(trans-3-(4-Bromo-3-fluoro-5-methoxyphenyl)-2,2-dichlorocyclopropane-1-carboxamido)-2-chloro-N-(4-fluorophenyl)benzamide]",–,–,–,50 to 100%,50 to 100%,A (80-100)
"O=C(Nc1ccc2sccc2c1)c1cc(NC(=O)[C@H]2[C@H](c3cc(Cl)cc(Cl)c3)C2(Cl)Cl)ccc1Cl (relative stereo) [F452, trans-N-(Benzo[b]thiophen-5-yl)-2-chloro-5-(2,2-dichloro-3-(3,5-dichlorophenyl)cyclopropane-1-carboxamido)benzamide]",–,–,–,50 to 100%,50 to 100%,A (80-100)
"Cn1nc(NC(=O)c2cc(NC(=O)[C@H]3[C@H](c4cc(Cl)cc(Cl)c4)C3(Cl)Cl)ccc2Cl)c2c(Cl)cccc21 (relative stereo) [F463, 2-Chloro-N-(4-chloro-1-methyl-1H-indazol-3-yl)-5-(trans)-(2,2-dichloro-3-(3,5-dichlorophenyl)cyclopropane-1-carboxamido)benzamide]",–,–,–,50 to 100%,50 to 100%,A (80-100)
"N#Cc1cc([N+](=O)[O-])ccc1NC(=O)c1cc(NC(=O)[C@H]2[C@H](c3cc(Cl)cc(Cl)c3)C2(Cl)Cl)ccc1Cl (relative stereo) [F229, trans-2-chloro-N-(2-cyano-4-nitrophenyl)-5-(2,2-dichloro-3-(3,5-dichlorophenyl)cyclopropane-1-carboxamido)benzamide]",50 to 100%,50 to 100%,A (80-100),–,–,–
"Nc1cc(F)c(NC(=O)c2cc(NC(=O)[C@H]3[C@H](c4ccc(F)c(Cl)c4)C3(Cl)Cl)ccc2Cl)cc1F [F571, trans-N-(4-Amino-2,5-difluorophenyl)-2-chloro-5-((1R,3R)-2,2-dichloro-3-(3-chloro-4-fluorophenyl)cyclopropane-1-carboxamido)benzamide]",–,–,–,50 to 100%,50 to 100%,A (80-100)
"O=C(Nc1ccccc1)c1cc(NC(=O)[C@H]2[C@H](c3ccc(F)c(Cl)c3)C2(Cl)Cl)ccc1Cl (relative stereo) [F259, trans-2-Chloro-5-(2,2-dichloro-3-(3-chloro-4-fluorophenyl)cyclopropane-1-carboxamido)-N-phenylbenzamide]",50 to 100%,50 to 100%,A (80-100),–,–,–
"Nc1c(F)ccc(NC(=O)c2cc(NC(=O)[C@H]3[C@H](c4ccc(Br)c(Cl)c4)C3(Cl)Cl)ccc2Cl)c1F (relative stereo) [F325, N-(3-Amino-2,4-difluorophenyl)-5-(trans-3-(4-bromo-3-chlorophenyl)-2,2-dichlorocyclopropane-1-carboxamido)-2-chlorobenzamide]",50 to 100%,50 to 100%,A (80-100),–,–,–
"Nc1ccc(F)c(NC(=O)c2cc(NC(=O)[C@H]3[C@H](c4cc(Cl)c(Cl)c(Cl)c4)C3(Cl)Cl)ccc2Cl)c1 [F429, N-(5-Amino-2-fluorophenyl)-2-chloro-5-((1R,3R)-2,2-dichloro-3-(3,4,5-trichlorophenyl)cyclopropane-1-carboxamido)benzamide]",–,–,–,50 to 100%,50 to 100%,A (80-100)
"Cc1ccc(C#N)c(NC(=O)c2cc(NC(=O)[C@H]3[C@H](c4cc(Cl)cc(Cl)c4)C3(Cl)Cl)ccc2Cl)c1 (relative stereo) [F230, 2-Chloro-N-(2-cyano-5-methylphenyl)-5-(trans-2,2-dichloro-3-(3,5-dichlorophenyl)cyclopropane-1-carboxamido)benzamide]",50 to 100%,50 to 100%,A (80-100),–,–,–
"O=C(Nc1ccc(F)cc1[N+](=O)[O-])c1cc(NC(=O)[C@H]2[C@H](c3cc(Cl)cc(Cl)c3)C2(Cl)Cl)ccc1Cl (relative stereo) [F348, trans-2-Chloro-5-(2,2-dichloro-3-(3,5-dichlorophenyl)cyclopropane-1-carboxamido)-N-(4-fluoro-2-nitrophenyl)benzamide]",50 to 100%,50 to 100%,A (80-100),–,–,–
"Cc1ccc2c(NC(=O)c3cc(NC(=O)[C@H]4[C@H](c5cc(Cl)cc(Cl)c5)C4(Cl)Cl)ccc3Cl)n[nH]c2c1 (relative stereo) [F478, 2-Chloro-5-(trans)-(2,2-dichloro-3-(3,5-dichlorophenyl)cyclopropane-1-carboxamido)-N-(6-methyl-1H-indazol-3-yl)benzamide]",–,–,–,50 to 100%,50 to 100%,A (80-100)
"CN(C(=O)c1cccc(NC(=O)[C@H]2[C@H](c3cc(Cl)cc(Cl)c3)C2(Cl)Cl)c1F)c1ccccc1 (relative stereo) [F69, trans-3-(2,2-Dichloro-3-(3,5-dichlorophenyl)cyclopropane-1-carboxamido)-2-fluoro-N-methyl-N-phenylbenzamide]",50 to 100%,50 to 100%,B (More than 0-Less than 80),–,–,–
"CN1Cc2ccc(NC(=O)c3cc(NC(=O)[C@H]4[C@H](c5cc(Cl)cc(Cl)c5)C4(Cl)Cl)ccc3Cl)cc2C1=O (relative stereo) [F517, 2-Chloro-5-(trans)-(2,2-dichloro-3-(3,5-dichlorophenyl)cyclopropane-1-carboxamido)-N-(2-methyl-3-oxoisoindolin-5-yl)benzamide]",–,–,–,50 to 100%,50 to 100%,A (80-100)
